Where two headings read alike, the source gives them in different places.
Columns and labels:
[1] = test system: Plants expressing the dioxygenase encoded by the tfdA gene; conditions: reported in Llewellyn and Last 1996 and U.S. Pat. Nos. 6,100,446 and 6,153,401; cited from earlier work
[2] = test system: Transgenic cotton plants (transformed with tfdA gene); test: Seed cotton yield after spraying 2,4-D amine on transgenic cotton; assay type: in vivo; conditions: for SEED COTTON YIELD: herbicide rate 1 lb/acre, average of 4 replications
Experimental: Transgenic cotton plants (transformed as described in Bayley et al., Theor. Appl. Genet., 83:645-649 (1992)) were grown from transgenic seed obtained from USDA, Lubbock, Tex. The cotton plants were sprayed with 2,4-D amine at 1 lb of active ingredient per acre.

[3] = test system: Plants expressing the dioxygenase encoded by the tfdA gene; test: Herbicide tolerance of plants expressing the tfdA dioxygenase; assay type: in vivo; conditions: at lower levels of herbicide than for 2,4-D; data not shown
Source text: See, e.g., Llewellyn and Last, in Herbicide-Resistant Crops Chapter 10, pages 159-174 (Duke, ed., CRC Lewis Publishers 1996). Preferably, additional bacterial codons of the tfdA coding sequence are replaced by plant-preferred codons to obtain better expression of the encoded dioxygenase. […] See, e.g., Llewellyn and Last, in Herbicide-Resistant Crops Chapter 10, pages 159-174 (Duke, ed., CRC Lewis Publishers 1996) and U.S. Pat. Nos. 6,100,446 and 6,153,401.

## O=C(O)COc1cc(Cl)c(Cl)cc1Cl [2,4,5-T, 2,4,5-trichlorophenoxyacetic acid]
[1]
  tolerance of plants to the herbicide: not to be tolerant

## O=C(O)COc1ccc(Cl)cc1 [4-CPA, 4-chlorophenoxyacetic acid]
[1]
  tolerance of plants to the herbicide: tolerant

## CNC.O=C(O)COc1ccc(Cl)cc1Cl [2,4-D amine]
[2]; 1 lb of active ingredient per acre
  effect on yield of cotton: significantly increased the yield of cotton
[2]; average of the seven cotton lines, 1 lb/acre vs rate 0
  PERCENT INCREASE, AVERAGE: 13.0
[2]; cotton line X-2600, 1 lb/acre vs rate 0
  PERCENT INCREASE: 8.0
[2]; cotton line X-2600
  SEED COTTON YIELD: 2145 Pounds/acre
[2]; cotton line X-2603, 1 lb/acre vs rate 0
  PERCENT INCREASE: 7.4
[2]; cotton line X-2603
  SEED COTTON YIELD: 2790 Pounds/acre
[2]; cotton line X-2606, 1 lb/acre vs rate 0
  PERCENT INCREASE: 19.5
[2]; cotton line X-2606
  SEED COTTON YIELD: 3067 Pounds/acre
[2]; cotton line X-2609, 1 lb/acre vs rate 0
  PERCENT INCREASE: −1.1
[2]; cotton line X-2609
  SEED COTTON YIELD: 2301 Pounds/acre
[2]; cotton line X-2614, 1 lb/acre vs rate 0
  PERCENT INCREASE: 33.6
[2]; cotton line X-2614
  SEED COTTON YIELD: 2660 Pounds/acre
[2]; cotton line X-2615, 1 lb/acre vs rate 0
  PERCENT INCREASE: 15.3
[2]; cotton line X-2615
  SEED COTTON YIELD: 2380 Pounds/acre
[2]; cotton line X-2619, 1 lb/acre vs rate 0
  PERCENT INCREASE: 8.7
[2]; cotton line X-2619
  SEED COTTON YIELD: 2235 Pounds/acre

## O=C(O)CCCOc1ccc(Cl)cc1Cl [2,4-DB, 2,4-dichlorophenoxybutyric acid]
[3]
  tolerance of plants to the herbicide: tolerant

## Cc1cc(Cl)ccc1OCC(=O)O [MCPA, 2-methyl-4-chlorophenoxyacetic acid]
[3]
  tolerance of plants to the herbicide: tolerant

Source: patent US20070225171A1 (priority 2001, published 2007)
